The source of these data is patent US6204005A, “Immunoassay for toxic congeners of polychlorinated biphenyls” (priority 1995, dated 2001).

For series [1] the following is noted: relative to 2,3,7,8-TCDD = 1.0; cited from earlier work.
The subject of series [2] is Hapten VII sera (polyclonal antibodies). Put plainly: Sera direct EIA with Hapten VII sera and competitor enzyme conjugate. The class given is binding, mice. As to conditions: for Assay sensitivity versus Hapten VII enzyme conjugate based assay: in words, Table 6. The protocol: The competitors A-E and Hapten VII were conjugated to the enzyme, amino modified Horseradish Peroxidase (HRP) (horseradish peroxidase commercially available from Sigma Chemical Co. (No. P-6782), St. Louis, Mo.; amino modified per R. Hsiao and H. Royer, Archives Biochem. Biophys., 198, 379-385 (1979) to give 6-24 free amines), using the carbodiimide mediated carboxyl activation procedure described for Hapten VII in Example 24. Hapten and competitor load were determined by UV/Vis spectroscopy, also as described for Hapten VII.
The direct EIA (immoblized antibody and competitor enzyme conjugate) was performed as follows. Serum or monoclonal antibody supernatant stored at -20° C. was diluted 1,000-40,000 fold with PBS which contained 0.1% Tween-20. This solution was dispensed (500 ul) into donkey anti-mouse second antibody coated tubes (DAM Tubes commercially available from Millipore Corp., Bedford, Mass.) and incubated at room temperature overnight. The antisera solution was decanted from the tubes and the tubes washed 3 times with distilled water. Non-specific sites in the tubes were blocked with 600 ul of BSA blocking buffer (EIA Blocking Buffer commercially available from Millipore Corp., Bedford, Mass.) and incubated for 2 hours at room temperature or overnight at 4° C. The blocking buffer was decanted and the tubes allowed to dry under ambient room conditions for at least 2 hours. The assay was performed by adding 500 ul of assay diluent (1% methanol (v/v) and 0.005% Tween-20 (w/v) in distilled water) to the required number of tubes followed by 10 ul of a methanol solution of the analyte (PCB congener). After a 5 minute incubation at room temperature, the solution was decanted and the tubes rinsed 3-4 times with tap water. The horseradish peroxidase competitor or Hapten VII conjugates were diluted 1,000-60,000 fold from 2-5 mg/ml stock solutions in PBS with conjugate diluent (Enzyme Conjugate Diluent commercially available from Millipore Corp., Bedford, Mass.). The enzyme conjugate (200 ul) was added to the tubes followed by a 5 minute incubation at room temperature. The conjugate solution was decanted and the tubes rinsed 3-4 times with tap water. Enzyme substrate solution (500 ul, KPL No. 50-76-04 commercially available from KPL Laboratories, Gaithersburg, Md.) was added and the tubes were incubated at room temperature for 5-15 minutes. The enzyme reaction was stopped with the addition of 500 ul of 1N HCl. The OD of the solution was determined at 450 nm. The data was plotted using Log (Congener Concentration) versus B/Bo (B=Sample Absorbance, Bo=Sample Blank Absorbance).
The direct EIA (Method 19) was used to evaluate sera samples taken on day 120.

For series [3], the system named is antibody in serum immobilized on goat anti-rabbit second antibody coated tubes. Put plainly: Enzyme immunoassay (EIA) with HRP competitor or Hapten I conjugates, Aroclor 1248 analyte (Method D). It counts as binding. The note with it: for Assay Response (I50): assay solution concentration of Aroclor 1248 producing 50% reduction in assay control signal, HRP conjugate of the listed competitor; for Relative Response: improvement in I50 sensitivity compared to homologous (Hapten I) based assay. As for the experimental part: Serum stored at -20° C. was diluted 1,000-40,000 fold with PBS which contained 0.1% Tween-20. This solution was dispensed (500 μl) into goat anti-rabbit second antibody coated tubes (GAR Tubes commercially available from Millipore Corp., Bedford, Mass.) and incubated at room temperature overnight. The antisera solution was decanted from the tubes and the tubes were washed 3 times with distilled water. Non-specific sites in the tubes were blocked with 600 μl of a BSA blocking buffer (EIA Blocking Buffer commercially available from Millipore Corp., Bedford, Mass.) and incubated for 2 hours at room temperature or overnight at 4° C. The blocking buffer was decanted and the tubes allowed to dry under ambient room conditions for 2 hours or overnight. The assay was performed by adding 500 μl of assay diluent (1% methanol (v/v) and 0.005% Tween-20 (w/v) in distilled water) to the required number of tubes followed by 10 μl of a methanol solution which contained 0-50 ppm of Aroclor 1248. After a 5 minute incubation at room temperature, the solution was decanted and the tubes rinsed 3-4 times with tap water. The horseradish peroxidase-(HRP) competitor conjugate or Hapten I conjugates were diluted 100-100,000 fold from 2-5 mg/ml stock solutions in PBS with conjugate diluent (Enzyme Conjugate Diluent commercially available from Millipore Corp., Bedford, Mass.). Enzyme-competitor conjugate was added in 200 μl and the tubes were incubated at room temperature for 5 minutes. The conjugate solution was decanted and the tubes rinsed 3-4 times with tap water. Enzyme substrate solution (500 μl, KPL No. 50-76-04 commercially available from KPL Laboratories, Gaithersburg, Md.) was added and the tubes were incubated at room temperature for 3-15 minutes. The enzyme reaction was stopped with the addition of 500 μl of 1N HCl. The OD of the solution was determined at 450 nm and the I50 values were determined using a correlation of Log (Aroclor 1248 Concentration in the assay solution in parts per billion=ppb) versus B/Bo ratio where B=Sample Absorbance and Bo=Absorbance of the Blank Sample.
The competitors and Hapten I were conjugated to the enzyme, amino modified Horseradish Peroxidase (HRP) (horseradish peroxidase commercially available from Sigma Chemical Co. (No. P-6782), St. Louis, Mo.; amino modified per ref R. Hsiao and H. Royer, Archives Biochem. Biophysics, 198, 379-385 (1979) to give 6-24 free amines), using the carbodiimide mediated carboxyl activation procedure described for Hapten I in Example 5.
EIA analysis of Aroclor 1248 (Method D) was performed using horseradish peroxidase (HRP) Conjugates of the competitors illustrated in FIG. 4.

Setting [4] is: Table 7, Hapten VII sera and Competitor D direct EIA.
The mark [5] stands for this setting: Table 6, I50 of analyte 3,3',4,4'-tetrachlorobiphenyl with the listed competitor, Hapten VII sera.

On to `Clc1ccc(-c2cc(Cl)c(Cl)cc2Cl)c(Cl)c1` [2,2',4,4',5-pentachloro-], for which, in series [1], the TEF entry is given as “less than 0.00001”. In the case of `Clc1ccc(Cl)c(-c2cc(Cl)ccc2Cl)c1` [2,2',5,5'-tetrachloro], the TEF result in series [1] is on record as “less than 0.00001”. Further, the I50 in series [2] (setting [4]) is > 20,000 ppb. For the compound `Clc1ccc(Cl)c(-c2ccccc2Cl)c1` [2,2',5-trichloro-], in series [1], the TEF entry is given as “less than 0.00001”. Consider `Clc1cc2c(cc1Cl)Oc1cc(Cl)c(Cl)cc1O2` [2,3,7,8-TCDD, 2,3,7,8-tetrachlorodibenzo-p-dioxin], for which the TEF in series [1] is recorded as 1.0. On to `Clc1ccc(-c2ccccc2Cl)cc1` [2,4'-dichloro-], for which the TEF entry in series [1] was “less than 0.00001”.

In the case of `Clc1ccc(-c2ccc(Cl)cc2Cl)cc1` [2,4,4',trichloro-], the TEF result in series [1] is recorded as “less than 0.00001”. As for `Clc1ccc(-c2ccc(Cl)cc2)cc1` [4,4'-dichloro], the I50 in series [2] (setting [4]) is reported as 4,300 ppb. Consider `Clc1ccc(-c2cc(Cl)c(Cl)c(Cl)c2)cc1` [BZ No. 81, 3,4,4',5-tetra], for which the TEF in series [1] is on record as 0.01. As to `Clc1ccc(-c2ccc(Cl)c(Cl)c2Cl)cc1Cl` [BZ No. 105, 2,3,3',4,4'-penta], in series [1], the TEF is recorded as 0.001. Regarding `Clc1ccc(-c2cc(Cl)c(Cl)c(Cl)c2Cl)cc1` [BZ No. 114, 2,3,4,4',5-penta], the TEF in series [1] is reported as 0.0001. Regarding `Clc1ccc(-c2cc(Cl)c(Cl)cc2Cl)cc1Cl` [BZ No. 118, 2,3',4,4',5-penta], the TEF in series [1] is 0.00.

As to `Clc1ccc(-c2cc(Cl)c(Cl)c(Cl)c2)c(Cl)c1` [BZ No. 123, 2,3',4,4',5'-penta], the TEF in series [1] is listed as 0.001. On to `Clc1ccc(-c2cc(Cl)c(Cl)c(Cl)c2Cl)cc1Cl` [BZ No. 156, 2,3,3',4,4',5-hexa], for which the TEF in series [1] is reported as 0.001. As to `Clc1cc(-c2ccc(Cl)c(Cl)c2Cl)cc(Cl)c1Cl` [BZ No. 157, 2,3,3',4,4',5-hexa], the TEF in series [1] is on record as 0.00002. For the compound `Clc1cc(Cl)c(-c2cc(Cl)c(Cl)c(Cl)c2)cc1Cl` [BZ No. 167, 2,3',4,4',5,5-hexa], the TEF in series [1] is reported as 0.001. `Clc1cc(-c2cc(Cl)c(Cl)c(Cl)c2)cc(Cl)c1Cl` [BZ No. 169, 3,3',4,4',5,5-hexa]: the TEF in series [1] is 0.05. As for `Clc1cc(-c2cc(Cl)c(Cl)c(Cl)c2Cl)cc(Cl)c1Cl` [BZ No. 189, 2,3,3',4,4',5,5'-hepta], the TEF in series [1] is on record as 0.001. Regarding `O=C(O)CCc1ccc(Cl)c(Cl)c1` [Competitor 9], in series [3], the “Assay Response (I50)” value was found to be 47 ppb and the “Relative Response” value was determined as 12 fold. Regarding `O=C(O)CCCCc1cc(Cl)ccc1Cl` [Competitor 11], in series [3], the “Assay Response (I50)” value came to 18 ppb and the “Relative Response” value amounted to 32 fold. As to `O=C(O)CCCC(=O)c1ccc(Cl)c(Cl)c1` [Competitor 12], in series [3], the “Assay Response (I50)” value is 23 ppb and the “Relative Response” value amounted to 24 fold. Regarding `O=C(O)CCCC(=O)Nc1ccc(Cl)c(Cl)c1` [Competitor 13], in series [3], the “Assay Response (I50)” value amounted to 2000 ppb and the “Relative Response” value is less than 1 fold.

Consider `O=C(O)C=Cc1ccc(Cl)c(Cl)c1` [Competitor 14], for which, in series [3], the “Assay Response (I50)” value came to 64 ppb and the “Relative Response” value was determined as 9 fold.

Regarding `O=C(O)CCCOc1ccc(Cl)cc1Cl` [Competitor 15], in series [3], the “Assay Response (I50)” value was 49 ppb and the “Relative Response” value amounted to 12 fold. The like results for `O=C(O)CCCOc1ccc(Cl)c(Cl)c1` [Competitor 16] were, in that order, 31 ppb and 18 fold. The like results for `O=C(O)CCCSc1cc(Cl)ccc1Cl` [Competitor 17] were, in that order, 33 ppb and 18 fold.

Regarding `O=C(O)CCCOc1ccc(Cl)c(Cl)c1` [Competitor B], the I50 in series [2] (setting [5]) is given as 3.5 ppb. The “Assay sensitivity versus Hapten VII enzyme conjugate based assay” value in series [2] is recorded as “significantly more sensitive”.

`O=C(O)CCCSc1cc(Cl)ccc1Cl` [Competitor C] had an I50 in series [2] (setting [5]) of 1.5 ppb. For the same compound, the “Assay sensitivity versus Hapten VII enzyme conjugate based assay” value in series [2] is reported as “significantly more sensitive”. `O=C(O)CCCC(=O)c1ccc(Cl)c(Cl)c1` [Competitor D] had an I50 in series [2] (setting [5]) of 3 ppb. For the same compound, the “Assay sensitivity versus Hapten VII enzyme conjugate based assay” value in series [2] is reported as “significantly more sensitive”.

On to `O=C(O)CCCCCOc1ccc(-c2cc(Cl)c(Cl)cc2Cl)c(Cl)c1` [Hapten I, 6-(2,2',4',5'-Tetrachlorobiphenyloxy)-4-yl hexanoic acid], for which the “Assay Response (I50)” value in series [3] was 570 ppb. In the case of `O=C(O)CCCCCOc1ccc(-c2ccc(Cl)c(Cl)c2)cc1Cl` [Hapten VII, 6-(3,3',4'-Trichlorobiphenyloxy)-4-yl hexanoic acid], the I50 in series [2] (setting [5]) is listed as 30-40 ppb.
